Experimental data taken from patent US20030176444A1, “Cytokine production inhibitors” (priority 2000, published 2003).

Assays:
[1] = test system: methicillin-resistant Staphylococcus aureus (MRSA) O-271 strain; assay: Rabbit ocular infection: viable bacterial number in corneal and conjunctival tissues; type: in vivo, Japanese White Rabbits; conditions: for Viable Bacterial Number (CFU/Cornea): 52 hours after inoculation, average
Experimental: (§1) The subject substances used for the test include […], 0.3 w/v % and 0.5 w/v % gatifloxacin eye drops. The control substances used include a 0.3 w/v % ofloxacin eye drop, a 0.5 w/v % levofloxacin eye drop and a physiological saline.
(§2) Japanese White Rabbits (male, 1.74 to 2.30 kg in weight) were generally anesthetized, and then 30 μL of 3.1×10^5 CFU/mL methicillin-resistant Staphylococcus aureus (MRSA) O-271 strain suspension was injected into a corneal stroma of each rabbit via a 27 gauge injection needle attached to a 100 μL microsyringe.
(§3) Five hours and 24 hours after the bacterial inoculation, 50 μL of each test substance was instillated into the rabbit eye using a micropipet. In the observation carried out 8, 16, 24, 32, and 48 hours after the bacterial inoculation, symptoms such as opacity of cornea, and redness and edema of conjunctiva were observed and scored based on the criteria as shown in Table 1. Each rabbit was sacrificed 52 hours after the bacterial inoculation, and then the eyeball was enucleated and cornea and conjunctiva were cut out. These tissue sections were morcellated in 2 mL of a physiological saline, diluted, and plated onto a Mueller-Hinton agar medium, and then the viable bacterial number was determined by counting the colonies formed after 48 hours.

[2] = test system: TNF-alpha production by lipopolysaccharide-stimulated macrophages; assay: Effect on TNF-alpha production by lipopolysaccharide-stimulated macrophages (ELISA); type: cell-based, C3H/HeNCrj mice; conditions: five-hour culture
Experimental: Effect on TNF-Alpha Production by Lipopolysaccharide-Stimulated Macrophages Gatifloxacin was added to a culture medium at a concentration of 1, 10, or 100 μg/mL. One mL of 3% thioglycolate culture medium (Sigma) was intraperitoneally administered to C3H/HeNCrj mice (male, 11 weeks old) to induce macrophages. Six days after the administration, the animals were sacrificed, and then 10 mL of sterile RPMI 1640 (GIBCO BRL; 10% FBS-RPMI) containing 100 U/mL penicillin-100 μg/mL streptomycin (GIBCO BRL) and 10 v/v % fetal bovine serum (FBS) was intraperitoneally injected. After gentle massage of the abdomen, the 10% FBS-RPMI was collected from the abdomen cavity. After the collected 10% FBS-RPMI was centrifuged, the supernatant was removed and the peritoneal exudate cells including macrophages were harvested. The harvested peritoneal exudate cells were suspended in 10% FBS-RPMI at a concentration of […], and the suspension was plated in each well of a 24-well plate. After incubation for 1.5 hours, non-adherent cells were washed out with 10% FBS-RPMI, and macrophages adhering to the plate were obtained. […] Each content of TNF-alpha in the culture supernatant was determined by using an enzyme immunoassay (ELISA).

[3] = test system: methicillin-resistant Staphylococcus aureus (MRSA) O-271 strain ocular infection; assay: Rabbit ocular infection: scoring of corneal and conjunctival findings; type: in vivo, Japanese White Rabbits
Experimental: Antiinflammatory Effects on Rabbit Ocular Infection
as §1, §2, §3

| SMILES | Viable Bacterial Number (CFU/Cornea) ([1]; 0.5% eye drop) | Viable Bacterial Number (CFU/Cornea) ([1]; 0.3% eye drop) | Viable Bacterial Number (CFU/Cornea) ([1]; 0.1% eye drop) | viable bacterial number in the corneal tissue (in words) ([1]; 0.1, 0.3 and 0.5 w/v % eye drop groups) | viable bacterial number in the corneal tissue (in words) ([1]; 0.5 w/v % eye drop) | concentration significantly suppressing the increase in TNF-alpha content ([2]; in combination with LPS 1 μg/mL, Williams' test) | inhibition of LPS-stimulated TNF-alpha production (TNF-alpha content of culture supernatant) ([2]; mouse peritoneal macrophages, LPS 1 μg/mL, gatifloxacin 1, 10 or 100 μg/mL) | symptoms of the corneal infection (total cornea score) ([3]; 0.1, 0.3 and 0.5 w/v % eye drops, 50 μL at 5 and 24 h after inoculation, observed until 48 hours) | conjunctival findings (total conjunctiva score) ([3]; 0.3 w/v % and 0.5 w/v % eye drops, after 32 hours) | conjunctival findings (total conjunctiva score) ([3]; 0.5 w/v % eye drop, after 48 hours) | symptoms of the corneal infection (total cornea score) ([3]; 0.5 w/v % eye drop, until 48 hours after inoculation) | symptoms of the corneal infection (total cornea score), comparison with ofloxacin ([3]; eye drop concentration of 0.3 w/v % or more, vs 0.3 w/v % ofloxacin eye drop) |
| --- | --- | --- | --- | --- | --- | --- | --- | --- | --- | --- | --- | --- |
| C[C@H]1COc2c(N3CCN(C)CC3)c(F)cc3c(=O)c(C(=O)O)cn1c23 [Levofloxacin] | 4.4 × 10^2 CFU/Cornea |  |  |  |  |  |  |  |  |  |  |  |
| CC1COc2c(N3CCN(C)CC3)c(F)cc3c(=O)c(C(=O)O)cn1c23 (centres unmarked) [Ofloxacin] |  | 2.0 × 10^5 CFU/Cornea |  |  |  |  |  |  |  |  |  |  |
| COc1c(N2CCNC(C)C2)c(F)cc2c(=O)c(C(=O)O)cn(C3CC3)c12 (racemic) [Gatifloxacin, (±)-1-cyclopropyl-6-fluoro-1,4-dihydro-8-methoxy-7-(3-methyl-1-piperazinyl-4-oxo-3-quinolinecarboxylic acid] | 3.9 × 10^2 CFU/Cornea | 1.1 × 10^3 CFU/Cornea | 1.3 × 10^4 CFU/Cornea | decreased dose-dependently | greatly decreased | ≥ 1 µg/mL | dose-dependently inhibited | dose-dependently inhibited | stronger inhibitory effect than the ofloxacin or the levofloxacin eye drop group | significantly stronger inhibitory effect than the 0.5 w/v % levofloxacin eye drop group | strong inhibitory effect | stronger inhibitory effect than the 0.3 w/v % ofloxacin eye drop group |
